Measured values from PubChem BioAssay AID330 (DTP/NCI, 2004).
Values joined by “and” are separate entries in the source; they are usually repeats but may differ in a detail not shown here. Equal entries are not always repeated. Toxic doses and inconclusive results are not listed. How the source made its calls: active means survival T/C of 150% or more; inactive means T/C below 125% in these data.

System: P388 leukemia ip, CD2F1 mice, survival T/C
Assay: NCI In Vivo Anticancer Drug Screen. Data for tumor model P388 Leukemia (intraperitoneal) in CD2F1 (CDF1) mice
Details: endpoint: median survival time, higher = longer survival
Method in brief: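 Mice carrying the transplanted tumor received test compound or vehicle. Survival was recorded in each group, and the value is the treated-group measurement divided by that of the vehicle-treated control group.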

[1] = dose: 60.0 mg/kg/injection, schedule: Q01DX005 (ip), vehicle: saline with Tween-80
[2] = dose: 120.0 mg/kg/injection, schedule: Q01DX005 (ip), vehicle: saline with Tween-80
[3] = dose: 240.0 mg/kg/injection, schedule: Q01DX005 (ip), vehicle: saline with Tween-80

Measured: T/C

COc1ccc2c3c(cccc13)-c1ccccc1C2=O
inactive: dose: 6.25 mg/kg/injection, schedule: Q01DX005 (ip), vehicle: saline with Tween-80 95 % of control | dose: 12.5 mg/kg/injection, schedule: Q01DX005 (ip), vehicle: saline with Tween-80 91 % of control | dose: 25.0 mg/kg/injection, schedule: Q01DX005 (ip), vehicle: saline with Tween-80 93 % of control

C#CC(C(C)C)N(CCO)CCCC (stereo not given)
inactive: [1] 105 % of control | [2] 104 % of control | [3] 102 % of control

CCC1=NO[C@@H](C(=O)OCc2ccccc2)[C@H]1C
inactive: [1] 113 % of control | [2] 103 % of control | [3] 95 % of control

O=C(O)c1c(Cl)n(Cc2ccc(Cl)cc2Cl)c2ccccc12
inactive: dose: 60.0 mg/kg/injection, schedule: Q01DX005 (ip), vehicle: Klucel (hydroxypropylcellulose) (HPC) 100 % of control | dose: 120.0 mg/kg/injection, schedule: Q01DX005 (ip), vehicle: Klucel (hydroxypropylcellulose) (HPC) 103 % of control and 93 % of control | dose: 240.0 mg/kg/injection, schedule: Q01DX005 (ip), vehicle: Klucel (hydroxypropylcellulose) (HPC) 104 % of control and 93 % of control

COc1ccc(/C=C/Cc2cc3c(cc2OC(C)=O)OCO3)cc1
inactive: [1] 98 % of control | [2] 101 % of control | [3] 93 % of control

CN1P(=N)(N)N=P(c2ccccc2)(c2ccccc2)N=P1(c1ccccc1)c1ccccc1 (stereo not given)
inactive: dose: 12.5 mg/kg/injection, schedule: Q01DX009 (ip), vehicle: Klucel (hydroxypropylcellulose) (HPC) 99 % of control and 113 % of control and 121 % of control | dose: 25.0 mg/kg/injection, schedule: Q01DX009 (ip), vehicle: Klucel (hydroxypropylcellulose) (HPC) 108 % of control and 115 % of control and 93 % of control | dose: 50.0 mg/kg/injection, schedule: Q01DX009 (ip), vehicle: Klucel (hydroxypropylcellulose) (HPC) 123 % of control and 88 % of control

O=S1(=O)C=C(c2ccccc2)S(=O)(=O)C=C1c1ccccc1
inactive: dose: 100.0 mg/kg/injection, schedule: Q04DX003 (ip), vehicle: saline with Tween-80 102 % of control | dose: 200.0 mg/kg/injection, schedule: Q04DX003 (ip), vehicle: saline with Tween-80 96 % of control

CC1(C)CC2C3=CCC4C5(C)CCC(O)C(C)(C)C5CCC4(C)C3(C)CCC2(CO)C(O)C1O (stereo not given)
inactive: dose: 3.25 mg/kg/injection, schedule: Q01DX005 (ip), vehicle: Klucel (hydroxypropylcellulose) (HPC) 99 % of control | dose: 6.5 mg/kg/injection, schedule: Q01DX005 (ip), vehicle: Klucel (hydroxypropylcellulose) (HPC) 99 % of control | dose: 13.0 mg/kg/injection, schedule: Q01DX005 (ip), vehicle: Klucel (hydroxypropylcellulose) (HPC) 99 % of control | dose: 26.0 mg/kg/injection, schedule: Q01DX005 (ip), vehicle: Klucel (hydroxypropylcellulose) (HPC) 98 % of control

OC(CCl)CN1CC[N+]2(CC1)CC[N+]1(CCN(CC(O)CCl)CC1)CC2 (stereo not given)
inactive: dose: 25.0 mg/kg/injection, schedule: Q01DX005 (ip), vehicle: water 100 % of control | dose: 25.0 mg/kg/injection, schedule: Q01DX005 (iv), vehicle: water 103 % of control | dose: 25.0 mg/kg/injection, schedule: Q01DX009 (sc), vehicle: water 97 % of control | dose: 25.0 mg/kg/injection, schedule: Q03HX008 (ip), vehicle: water 106 % of control | dose: 25.0 mg/kg/injection, schedule: Q03HX016 (ip), vehicle: water 100 % of control | dose: 25.0 mg/kg/injection, schedule: Q03HX024 (ip), vehicle: water 113 % of control | dose: 50.0 mg/kg/injection, schedule: Q01DX005 (ip), vehicle: water 101 % of control and 92 % of control | dose: 50.0 mg/kg/injection, schedule: Q01DX005 (iv), vehicle: water 102 % of control and 105 % of control | dose: 50.0 mg/kg/injection, schedule: Q01DX009 (ip), vehicle: water 98 % of control | dose: 50.0 mg/kg/injection, schedule: Q01DX009 (sc), vehicle: water 104 % of control | dose: 50.0 mg/kg/injection, schedule: Q03HX008 (ip), vehicle: water 103 % of control | dose: 50.0 mg/kg/injection, schedule: Q03HX016 (ip), vehicle: water 118 % of control | dose: 50.0 mg/kg/injection, schedule: Q03HX024 (ip), vehicle: water 121 % of control | dose: 100.0 mg/kg/injection, schedule: Q01DX005 (ip), vehicle: water 109 % of control and 98 % of control | dose: 100.0 mg/kg/injection, schedule: Q01DX005 (iv), vehicle: water 100 % of control and 101 % of control | dose: 100.0 mg/kg/injection, schedule: Q01DX009 (ip), vehicle: water 103 % of control | dose: 100.0 mg/kg/injection, schedule: Q01DX009 (oral), vehicle: water 99 % of control | dose: 100.0 mg/kg/injection, schedule: Q01DX009 (sc), vehicle: water 106 % of control | dose: 100.0 mg/kg/injection, schedule: Q03HX008 (ip), vehicle: water 114 % of control | dose: 100.0 mg/kg/injection, schedule: Q03HX024 (ip), vehicle: water 123 % of control | dose: 100.0 mg/kg/injection, schedule: Q04DX003 (ip), vehicle: water 92 % of control | dose: 200.0 mg/kg/injection, schedule: Q01DX001 (ip), vehicle: water 95 % of control | dose: 200.0 mg/kg/injection, schedule: Q01DX005 (ip), vehicle: water 102 % of control and 115 % of control | dose: 200.0 mg/kg/injection, schedule: Q01DX005 (iv), vehicle: water 109 % of control | dose: 200.0 mg/kg/injection, schedule: Q01DX009 (ip), vehicle: water 117 % of control | dose: 200.0 mg/kg/injection, schedule: Q01DX009 (oral), vehicle: water 101 % of control | dose: 200.0 mg/kg/injection, schedule: Q01DX009 (sc), vehicle: water 114 % of control | dose: 200.0 mg/kg/injection, schedule: Q04DX003 (ip), vehicle: water 99 % of control | dose: 200.0 mg/kg/injection, schedule: Q08DX002 (ip), vehicle: water 95 % of control | dose: 400.0 mg/kg/injection, schedule: Q01DX001 (ip), vehicle: water 96 % of control | dose: 400.0 mg/kg/injection, schedule: Q01DX005 (iv), vehicle: water 109 % of control | dose: 400.0 mg/kg/injection, schedule: Q01DX009 (ip), vehicle: water 111 % of control | dose: 400.0 mg/kg/injection, schedule: Q01DX009 (oral), vehicle: water 101 % of control | dose: 400.0 mg/kg/injection, schedule: Q01DX009 (sc), vehicle: water 107 % of control | dose: 400.0 mg/kg/injection, schedule: Q04DX003 (ip), vehicle: water 106 % of control | dose: 400.0 mg/kg/injection, schedule: Q08DX002 (ip), vehicle: water 104 % of control | dose: 800.0 mg/kg/injection, schedule: Q01DX001 (ip), vehicle: water 100 % of control | dose: 800.0 mg/kg/injection, schedule: Q01DX009 (oral), vehicle: water 92 % of control | dose: 800.0 mg/kg/injection, schedule: Q01DX009 (sc), vehicle: water 92 % of control | dose: 800.0 mg/kg/injection, schedule: Q04DX003 (ip), vehicle: water 118 % of control | dose: 800.0 mg/kg/injection, schedule: Q08DX002 (ip), vehicle: water 113 % of control | dose: 1600.0 mg/kg/injection, schedule: Q01DX001 (ip), vehicle: water 119 % of control | dose: 1600.0 mg/kg/injection, schedule: Q08DX002 (ip), vehicle: water 120 % of control

COc1ccc(S(=O)(=O)c2coc3ccc(C)cc3c2=O)cc1
inactive: [1] 100 % of control | [2] 96 % of control | [3] 95 % of control

CCc1cccc(C)c1NC(=O)C(=O)CC(=O)c1ccccc1Cl
inactive: dose: 50.0 mg/kg/injection, schedule: Q01DX005 (ip), vehicle: saline 103 % of control | dose: 100.0 mg/kg/injection, schedule: Q01DX005 (ip), vehicle: saline 107 % of control | dose: 200.0 mg/kg/injection, schedule: Q01DX005 (ip), vehicle: saline 103 % of control

CN1C(=O)C23SSC1(C)C(=O)N2c1ccccc1C3(C)C (stereo not given)
inactive: dose: 12.5 mg/kg/injection, schedule: Q01DX009 (ip), vehicle: suspension in saline 95 % of control | dose: 25.0 mg/kg/injection, schedule: Q01DX009 (ip), vehicle: suspension in saline 91 % of control | dose: 50.0 mg/kg/injection, schedule: Q01DX009 (ip), vehicle: saline 95 % of control

CCCCOC(=O)NCCCl
inactive: dose: 50.0 mg/kg/injection, schedule: Q01DX009 (ip), vehicle: saline with Tween-80 96 % of control | dose: 100.0 mg/kg/injection, schedule: Q01DX009 (ip), vehicle: saline with Tween-80 97 % of control | dose: 200.0 mg/kg/injection, schedule: Q01DX009 (ip), vehicle: saline with Tween-80 102 % of control

C1=C2NNC(c3ccccc3)=C(c3ccccc3)C2=CCC1 (tested in a mixture with another compound)
inactive: [1] 96 % of control | [2] 92 % of control | [3] 91 % of control

CN=C(N)N/N=C(\C)c1ccc2sc3ccccc3c2c1
inactive: dose: 25.0 mg/kg/injection, schedule: Q04DX002 (ip), vehicle: saline with Tween-80 104 % of control | dose: 50.0 mg/kg/injection, schedule: Q04DX002 (ip), vehicle: saline with Tween-80 106 % of control | dose: 100.0 mg/kg/injection, schedule: Q04DX002 (ip), vehicle: saline with Tween-80 107 % of control
